“And” between values parts separate entries of the source, which are not always exact repeats. Identical values can stand only once. The source made the active and inactive calls. No cut-off for these calls is given here. Where only a bound is given, the exact number is not on record here.

Assay [1] deals with Trypanosoma cruzi. Nature of the assay: The compound was evaluated for its inhibitory activity against Trypanosoma cruzi. The format is functional. The settings on record: read-out: ED50 (the source's name).
Assay [2] can be described thus: The compound was evaluated for its toxicity against KB cells. It counts as functional. The settings on record: Homo sapiens, read-out: ED50 (the source's name).
Assay [3] has as its system Trypanosoma brucei. Nature of the assay: The compound was evaluated for its inhibitory activity against Trypanosoma brucei (indicate results of two experiments). It counts as functional. The conditions noted are these: read-out: ED50 (the source's name).
In assay [4] the test system is Leishmania donovani. Kind of assay: The compound was evaluated for its inhibitory activity against Leishmania donovani. The format is functional. The conditions noted are these: read-out: ED50 (the source's name).
The test system of assay [5] is Trypanosoma brucei. Nature of the assay: The compound was evaluated for its inhibitory activity against Trypanosoma brucei. It counts as functional. The settings on record: read-out: ED50 (the source's name).
In assay [6] the test system is Trypanosoma cruzi. Nature of the assay: The compound was evaluated for its inhibitory activity against Trypanosoma cruzi (toxic effect on macrophages). The conditions noted are these: read-out: ED50 (the source's name). It counts as functional.
Assay [7] deals with Trypanosoma brucei. Kind of assay: The compound was evaluated for the inhibition of Trypanosoma brucei at 1 (ug/ml). The format is functional.
The subject of assay [8] is Mus musculus. Kind of assay: Inhibitory activity (in vivo) against mice infected with Trypanosoma rhodesiense after intraperitoneal administration of compound (50 mg/kg for 4 days); No effect. It counts as functional, organism-based.
In assay [9] the test system is Mus musculus. Kind of assay: Percent reduction (in vivo) against mice infected with Leishmania donovani after intraperitoneal administration of compound (50 mg/kg for 5 days). It counts as functional.

Regarding `CC(C(=O)NCCCNCCCCN)[C@H]1CCC2C3CC=C4C[C@@H](OS(=O)(=O)O)CC[C@]4(C)C3CC[C@@]21C` (stereo partly drawn), the EC50 was 13.5 µM in assay [1], above 526 µM in assay [2], above 53 µM in assay [3] and 39.9 µM in assay [4].

As for `CC(=O)O[C@H]1CC[C@@]2(C)C(=CCC3C2CC[C@@]2(C)C3CC[C@@H]2C(C)C(=O)NCCCN(CCCCN(CCCNC(=O)OC(C)(C)C)C(=O)OC(C)(C)C)C(=O)OC(C)(C)C)C1` (stereo partly drawn), the EC50 in [1] is above 34 µM; in assay [2], 31 µM; in assay [5] (Trypanosoma brucei), 1.1 µM; in [5], 0.57 µM; in assay [4], 4.7 µM.

Regarding `CC(C(=O)NCCCN(CCCCNC(=O)OC(C)(C)C)C(=O)OC(C)(C)C)[C@H]1CCC2C3CC=C4C[C@@H](O)CC[C@]4(C)C3CC[C@@]21C` (stereo partly drawn), the EC50 in assay [2] is 65 µM; in assay [5], 4.7 µM and 1.5 µM; in [6], above 15 µM; in assay [4] it was 25.7 µM.

In turn, `N=C(N)c1ccc(OCCCCCOc2ccc(C(=N)N)cc2)cc1` [PENTAMIDINE] displayed an Inhibition in assay [7] of 100%.

For the compound `CC(C(=O)NCCCNCCCCN)[C@H]1CCC2C3CC=C4C[C@@H](O)CC[C@]4(C)C3CC[C@@]21C` (stereo partly drawn), the EC50 in [2] is 3.3 µM; in [5], 1.9 µM and 0.63 µM; in assay [6] it was above 63 µM; in [4], 44.7 µM.

For the compound `CC(C(=O)NCCCN(CCCCN(CCCNC(=O)OC(C)(C)C)C(=O)OC(C)(C)C)C(=O)OC(C)(C)C)[C@H]1CCC2C3CC=C4C[C@@H](O)CC[C@]4(C)C3CC[C@@]21C` (stereo partly drawn), the EC50 in assay [1] is above 36 µM; in assay [2], 27 µM; in assay [3], 0.6 µM; in [4], 12.6 µM.

Turning to `CC(C(=O)NCCCN(CCCCNC(=O)OC(C)(C)C)C(=O)OC(C)(C)C)[C@H]1CCC2C3CC=C4C[C@@H](OS(=O)(=O)O)CC[C@]4(C)C3CC[C@@]21C` (stereo partly drawn), the EC50 in assay [2] was above 360 µM; in [3], above 36 µM; in [6], above 36 µM; in [4], 4.9 µM.

As to `O=C(Cn1ccnc1[N+](=O)[O-])NCc1ccccc1` [BENZNIDAZOLE], in assay [1], the EC50 was 7.45 µg/mL.

`CC(=O)O[C@H]1CC[C@@]2(C)C(=CCC3C2CC[C@@]2(C)C3CC[C@@H]2C(C)C(=O)NCCCN(CCCCNC(=O)OC(C)(C)C)C(=O)OC(C)(C)C)C1` (stereo partly drawn): the EC50 in assay [1] was above 42 µM; in assay [2], 111 µM; in assay [3], 2.6 µM; in assay [4] it was 17.3 µM.

As for `CC(C(=O)NCCCNCCCCNCCCN)[C@H]1CCC2C3CC=C4C[C@@H](O)CC[C@]4(C)C3CC[C@@]21C` (stereo partly drawn), the EC50 in [2] was 15 µM; in assay [5] (Trypanosoma brucei), 0.56 µM; in [5], 1.1 µM; in assay [6] it was above 57 µM; in [4], 5 µM. In [8], the result was inactive. The compound also came in with a Reduction in [9] of 16%.

Source of the values: ChEMBL document CHEMBL1132906, “Squalamine analogues as potential anti-trypanosomal and anti-leishmanial compounds” (2000).
